Assay results: ChEMBL document CHEMBL5154721, “Discovery of HDAC6-Selective Inhibitor NN-390 with in Vitro Efficacy in Group 3 Medulloblastoma” (J Med Chem, 2022)
Calls of active or inactive are those of the source. The calls are words filed in the database; no cut-off is given here.

What was measured:
[1] = target: T1, Protein deacetylase HDAC6 (Homo sapiens) (UniProt Q9UBN7); experiment: Inhibition of full length human recombinant HDAC6 in human HD-MB03 cells assessed as increase in acetylation of alpha tubulin at 53 nM for 6 hrs by western blotting anlaysis; format: cell-based
T1 sequence (whole entry): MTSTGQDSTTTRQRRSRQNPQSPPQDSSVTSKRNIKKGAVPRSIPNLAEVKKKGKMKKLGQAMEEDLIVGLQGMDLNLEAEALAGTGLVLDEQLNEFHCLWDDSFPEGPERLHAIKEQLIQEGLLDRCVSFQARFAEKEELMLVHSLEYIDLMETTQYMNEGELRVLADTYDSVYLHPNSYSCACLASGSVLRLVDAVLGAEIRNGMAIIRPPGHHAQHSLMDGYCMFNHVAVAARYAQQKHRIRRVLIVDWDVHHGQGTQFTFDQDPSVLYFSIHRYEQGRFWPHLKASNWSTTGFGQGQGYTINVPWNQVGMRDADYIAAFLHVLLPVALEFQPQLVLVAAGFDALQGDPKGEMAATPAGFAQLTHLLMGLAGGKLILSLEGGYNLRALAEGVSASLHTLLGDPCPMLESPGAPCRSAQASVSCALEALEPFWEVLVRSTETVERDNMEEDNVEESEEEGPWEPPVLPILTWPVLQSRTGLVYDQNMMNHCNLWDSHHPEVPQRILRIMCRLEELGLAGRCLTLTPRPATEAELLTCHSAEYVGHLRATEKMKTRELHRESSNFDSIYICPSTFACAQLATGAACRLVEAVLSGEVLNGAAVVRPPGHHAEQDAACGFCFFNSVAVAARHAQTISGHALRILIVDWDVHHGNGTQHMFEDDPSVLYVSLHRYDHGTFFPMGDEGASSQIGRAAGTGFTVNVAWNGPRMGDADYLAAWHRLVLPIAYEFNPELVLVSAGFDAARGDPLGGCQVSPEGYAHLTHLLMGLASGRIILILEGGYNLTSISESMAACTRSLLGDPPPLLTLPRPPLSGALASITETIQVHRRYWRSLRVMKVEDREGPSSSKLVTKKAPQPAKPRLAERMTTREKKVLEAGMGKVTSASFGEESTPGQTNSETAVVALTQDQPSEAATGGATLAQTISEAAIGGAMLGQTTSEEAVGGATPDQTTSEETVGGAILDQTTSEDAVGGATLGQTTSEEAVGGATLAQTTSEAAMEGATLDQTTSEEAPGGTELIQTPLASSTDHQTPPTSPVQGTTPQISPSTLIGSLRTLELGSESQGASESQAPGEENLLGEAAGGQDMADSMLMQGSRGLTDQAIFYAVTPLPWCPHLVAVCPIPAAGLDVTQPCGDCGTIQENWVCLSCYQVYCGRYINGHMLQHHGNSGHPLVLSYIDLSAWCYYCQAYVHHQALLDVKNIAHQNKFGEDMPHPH

[2] = Dissociation constant, pKa of compound; format: physicochemical
Histone deacetylase 1 = Histone deacetylase 1 (Homo sapiens, UniProt Q13547); experiment: Inhibition of full length human recombinant HDAC1 expressed in Sf9 baculovirus system using FAM-labeled acetylated peptide as substrate by measuring fluorescence intensity by EMSA method
Sequence of Histone deacetylase 1 (Q13547 whole entry): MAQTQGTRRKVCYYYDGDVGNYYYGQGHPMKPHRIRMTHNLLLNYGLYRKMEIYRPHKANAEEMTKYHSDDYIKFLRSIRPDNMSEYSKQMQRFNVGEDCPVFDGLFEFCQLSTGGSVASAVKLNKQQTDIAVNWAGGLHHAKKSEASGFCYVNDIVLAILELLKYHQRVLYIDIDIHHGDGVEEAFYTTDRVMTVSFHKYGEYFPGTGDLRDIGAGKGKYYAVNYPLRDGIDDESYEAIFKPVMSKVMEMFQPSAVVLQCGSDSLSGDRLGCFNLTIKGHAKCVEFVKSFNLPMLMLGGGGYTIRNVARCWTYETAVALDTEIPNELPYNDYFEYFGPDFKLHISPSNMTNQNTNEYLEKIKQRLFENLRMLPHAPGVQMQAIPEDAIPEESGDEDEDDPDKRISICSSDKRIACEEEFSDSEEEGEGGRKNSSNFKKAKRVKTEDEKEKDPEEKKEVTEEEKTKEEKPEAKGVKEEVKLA

[3] = target: T2, Polyamine deacetylase HDAC10 (Homo sapiens, UniProt Q969S8); experiment: Inhibition of full length human recombinant HDAC10 expressed in Sf9 baculovirus system using FAM-labeled acetylated peptide as substrate by measuring fluorescence intensity
T2 sequence (Q969S8 whole entry): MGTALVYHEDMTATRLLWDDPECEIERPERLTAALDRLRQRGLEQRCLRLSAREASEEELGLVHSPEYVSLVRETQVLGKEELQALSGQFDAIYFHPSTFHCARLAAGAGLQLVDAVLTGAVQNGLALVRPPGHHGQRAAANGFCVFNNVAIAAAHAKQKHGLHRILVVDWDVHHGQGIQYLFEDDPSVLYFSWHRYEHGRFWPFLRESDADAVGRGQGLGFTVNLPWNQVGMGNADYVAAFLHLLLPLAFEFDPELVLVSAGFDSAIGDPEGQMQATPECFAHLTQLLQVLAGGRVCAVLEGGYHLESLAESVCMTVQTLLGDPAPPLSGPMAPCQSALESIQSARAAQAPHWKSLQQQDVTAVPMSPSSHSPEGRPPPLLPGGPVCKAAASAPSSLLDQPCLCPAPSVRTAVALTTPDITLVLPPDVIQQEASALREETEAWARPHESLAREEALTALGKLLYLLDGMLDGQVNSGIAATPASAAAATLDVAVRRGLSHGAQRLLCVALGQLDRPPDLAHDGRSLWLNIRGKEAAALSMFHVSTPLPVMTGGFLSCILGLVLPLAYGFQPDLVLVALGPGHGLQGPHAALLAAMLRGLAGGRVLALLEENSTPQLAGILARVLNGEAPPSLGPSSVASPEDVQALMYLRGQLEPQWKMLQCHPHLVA

[4] = Competitive inhibition of N-terminal His-SUMO tagged zebra fish recombinant HDAC6 catalytic domain 2 transfected with pET28b(+) vector in Escherichia coli BL21 (DE3) RILP cells incubated for 10 mins followed by addition of FITC-M344 measured af ter 10 mins by fluorescence polarization assay; design: species or system Danio rerio
[5] = Cytotoxicity against primary normal human fibroblast cells assessed as inhibition of cell growth incubated for 72 hrs measured by spectrophotometer analysis; format: toxicity, cell-based
[6] = Cytotoxicity against HUVEC cells assessed as inhibition of cell growth incubated for 72 hrs measured by spectrophotometer analysis; format: toxicity, cell-based; conditions: human
[7] = Cytotoxicity against human primary pooled fibroblasts cells assessed as inhibition of cell growth incubated for 72 hrs measured by spectrophotometer analysis; format: toxicity, cell-based, Fibroblast
[8] = target: T1, Protein deacetylase HDAC6 (Homo sapiens); experiment: Potency index, ratio of test compound residence time to ricolinostat residence time in full length HDAC6-NanoLuc fusion protein (unknown origin) expressed in HeLa cells by NanoBRET assay; format: cell-based
[9] = target: T1, Protein deacetylase HDAC6 (Homo sapiens); experiment: Inhibition of full length human recombinant HDAC6 in human MV4-11 cells assessed as increase in acetylation of alpha-tubulin at 0.1 uM for 6 hrs by Western blot analysis; format: cell-based
MV4-11 [10] = experiment: Induction of apoptosis in human MV4-11 cells assessed as early apoptotic cells at 0.25 uM after 24 hrs by Annexin V/PI staining based flow cytometric analysis (Rvb=2%); format: functional
MV4-11 [11] = experiment: Induction of apoptosis in human MV4-11 cells assessed as late apoptotic cells at 0.25 uM after 24 hrs by Annexin V/PI staining based flow cytometric analysis (Rvb=8.13%); format: functional
MV4-11 [12] = experiment: Induction of apoptosis in human MV4-11 cells assessed as late apoptotic cells at 0.75 uM after 24 hrs by Annexin V/PI staining based flow cytometric analysis (Rvb=2%); format: functional
MV4-11 [13] = experiment: Induction of apoptosis in human MV4-11 cells assessed as late apoptotic cells at 2 uM after 18 hrs by Annexin V/PI staining based flow cytometric analysis; format: functional
[14] = Cytotoxicity against human HD-MB03 cells assessed as inhibition of cell growth incubated for 72 hrs measured by spectrophotometer analysis; format: functional, cell-based; conditions: HD-MB03, 72 h
MB002 = experiment: Cytotoxicity against refractory human group 3 SU_MB002 cells; format: functional, cell-based
[15] = Stability in human plasma assessed as half life measured upto 60 mins by LC-MS/MS analysis; format: ADME, cell-free

inhibition [1]: Active
pKa [2]: 8.77
IC50 (Histone deacetylase 1): > 5 µM
IC50 [3]: > 5 µM
fold change (FC) [8]: 2
inhibition [9]: Active
half-life [15]: 1.92 h
Structure (SMILES): CC(C)N(Cc1ccc(C(=O)NO)cc1)S(=O)(=O)c1cc(F)c(F)c(F)c1F
IC50 [4]: 0.139 µM
IC50 at 72 h [5]: 12.4 µM
IC50 at 72 h [6]: 10.1 µM
IC50 at 72 h [7]: 8.8 µM
Activity (MV4-11 [10]): 3.6%
Activity (MV4-11 [11]): 9%
Activity (MV4-11 [12]): 7.81%
Activity (MV4-11 [13]): 39%
IC50 [14]: 0.13 µM
Activity (MB002): Active
